According to patent EP0726263A2, “Herbicidal (1,3,4)oxadiazoles and thiadiazoles” (American Cyanamid Company, priority 1995, dated 1996):

Legend:
Type in all cases: in vivo
[1] = system: Ambrosia artemisifolia; assay: Herbicidal activity, preemergence test; details: pre; sprayed onto soil, 800 g of active material per hectare; evaluated 3 weeks after treatment
Description: (§1) To evaluate their herbicidal activity, compounds according to the invention are tested using a representative range of plants: TRZAW Triticum aestivum HORVW Hordeum vulgare ZEAMX Zea mays GOSHI Gossypium hirsutum HELAN Helianthus annuus GLYMA Glycine max ALOMY Alopecurus myosuroides SETVI Setaria viridis ECHCG Echinochloa crus-galli GALAP Galium aparine STEME Stellaria media VERPE Veronica persica VIOAR Viola arvensis IPOHE Ipomoea hederacea LAMPU Lamium purpureum PAPRH Papaver rhoeas MATIN Matricaria inodora AMARE Amaranthus retroflexus ABUTH Abutilon theophrasti AMBEL Ambrosia artemisifolia CHEAL Chenopodium album
(§2) The tests fall into two categories, preemergence and postemergence. The preemergence tests involve spraying a liquid formulation of the compound onto the soil in which the seeds have recently been sown. The postemergence tests involve spraying a liquid formulation of the compound onto seedling plants.
(§3) The soil used in the tests is a prepared horticultural loam.
(§4) The formulations used in the tests are prepared from solutions of the test compounds in acetone containing 0.4% by weight of an alkylphenol/ethylene oxide condensate available under the trade mark TRITON X-155. These acetone solutions are diluted with water and the resulting formulations applied at dosage levels corresponding to 800 g of active material per hectare in a volume equivalent to 900 litres per hectare.
(§5) In the preemergence tests untreated sown soil and in the postemergence tests untreated soil bearing seedling plants are used as controls.
(§6) Results of herbicide evaluation are expressed on a rating scale (0-9). The scale is based upon a visual observation of plant stand, vigor, malformation, size, chlorosis, and general plant appearance as compared to a control. Preemergence and postemergence treatments are evaluated at 3 and 2 weeks after treatment, respectively.

[2] = system: Matricaria inodora; assay: Herbicidal activity, preemergence test; details: pre; sprayed onto soil, 800 g of active material per hectare; evaluated 3 weeks after treatment
Description: as §1, §2, §3, §4, §5, §6

[3] = system: Setaria viridis; assay: Herbicidal activity, preemergence test; details: pre; sprayed onto soil, 800 g of active material per hectare; evaluated 3 weeks after treatment
Description: as §1, §2, §3, §4, §5, §6

[4] = system: Zea mays; assay: Herbicidal activity, preemergence test; details: pre; sprayed onto soil, 800 g of active material per hectare; evaluated 3 weeks after treatment
Description: as §1, §2, §3, §4, §5, §6

[5] = system: Amaranthus retroflexus; assay: Herbicidal activity, preemergence test; details: pre; sprayed onto soil, 800 g of active material per hectare; evaluated 3 weeks after treatment
Description: as §1, §2, §3, §4, §5, §6

[6] = system: Veronica persica; assay: Herbicidal activity, preemergence test; details: pre; sprayed onto soil, 800 g of active material per hectare; evaluated 3 weeks after treatment
Description: as §1, §2, §3, §4, §5, §6

[7] = system: Gossypium hirsutum; assay: Herbicidal activity, preemergence test; details: pre; sprayed onto soil, 800 g of active material per hectare; evaluated 3 weeks after treatment
Description: as §1, §2, §3, §4, §5, §6

[8] = system: Galium aparine; assay: Herbicidal activity, preemergence test; details: pre; sprayed onto soil, 800 g of active material per hectare; evaluated 3 weeks after treatment
Description: as §1, §2, §3, §4, §5, §6

[9] = system: Glycine max; assay: Herbicidal activity, preemergence test; details: pre; sprayed onto soil, 800 g of active material per hectare; evaluated 3 weeks after treatment
Description: as §1, §2, §3, §4, §5, §6

[10] = system: Abutilon theophrasti; assay: Herbicidal activity, preemergence test; details: pre; sprayed onto soil, 800 g of active material per hectare; evaluated 3 weeks after treatment
Description: as §1, §2, §3, §4, §5, §6

[11] = system: Triticum aestivum; assay: Herbicidal activity, preemergence test; details: pre; sprayed onto soil, 800 g of active material per hectare; evaluated 3 weeks after treatment
Description: as §1, §2, §3, §4, §5, §6

[12] = system: Ipomoea hederacea; assay: Herbicidal activity, preemergence test; details: pre; sprayed onto soil, 800 g of active material per hectare; evaluated 3 weeks after treatment
Description: as §1, §2, §3, §4, §5, §6

[13] = system: Stellaria media; assay: Herbicidal activity, preemergence test; details: pre; sprayed onto soil, 800 g of active material per hectare; evaluated 3 weeks after treatment
Description: as §1, §2, §3, §4, §5, §6

[14] = system: Hordeum vulgare; assay: Herbicidal activity, preemergence test; details: pre; sprayed onto soil, 800 g of active material per hectare; evaluated 3 weeks after treatment
Description: as §1, §2, §3, §4, §5, §6

[15] = system: Papaver rhoeas; assay: Herbicidal activity, preemergence test; details: pre; sprayed onto soil, 800 g of active material per hectare; evaluated 3 weeks after treatment
Description: as §1, §2, §3, §4, §5, §6

[16] = system: Alopecurus myosuroides; assay: Herbicidal activity, preemergence test; details: pre; sprayed onto soil, 800 g of active material per hectare; evaluated 3 weeks after treatment
Description: as §1, §2, §3, §4, §5, §6

[17] = system: Lamium purpureum; assay: Herbicidal activity, preemergence test; details: pre; sprayed onto soil, 800 g of active material per hectare; evaluated 3 weeks after treatment
Description: as §1, §2, §3, §4, §5, §6

[18] = system: Chenopodium album; assay: Herbicidal activity, preemergence test; details: pre; sprayed onto soil, 800 g of active material per hectare; evaluated 3 weeks after treatment
Description: as §1, §2, §3, §4, §5, §6

[19] = system: Ambrosia artemisifolia; assay: Herbicidal activity, postemergence test; details: post; sprayed onto seedling plants, 800 g of active material per hectare; evaluated 2 weeks after treatment
Description: as §1, §2, §3, §4, §5, §6

[20] = system: Matricaria inodora; assay: Herbicidal activity, postemergence test; details: post; sprayed onto seedling plants, 800 g of active material per hectare; evaluated 2 weeks after treatment
Description: as §1, §2, §3, §4, §5, §6

[21] = system: Setaria viridis; assay: Herbicidal activity, postemergence test; details: post; sprayed onto seedling plants, 800 g of active material per hectare; evaluated 2 weeks after treatment
Description: as §1, §2, §3, §4, §5, §6

[22] = system: Zea mays; assay: Herbicidal activity, postemergence test; details: post; sprayed onto seedling plants, 800 g of active material per hectare; evaluated 2 weeks after treatment
Description: as §1, §2, §3, §4, §5, §6

[23] = system: Amaranthus retroflexus; assay: Herbicidal activity, postemergence test; details: post; sprayed onto seedling plants, 800 g of active material per hectare; evaluated 2 weeks after treatment
Description: as §1, §2, §3, §4, §5, §6

[24] = system: Veronica persica; assay: Herbicidal activity, postemergence test; details: post; sprayed onto seedling plants, 800 g of active material per hectare; evaluated 2 weeks after treatment
Description: as §1, §2, §3, §4, §5, §6

[25] = system: Gossypium hirsutum; assay: Herbicidal activity, postemergence test; details: post; sprayed onto seedling plants, 800 g of active material per hectare; evaluated 2 weeks after treatment
Description: as §1, §2, §3, §4, §5, §6

[26] = system: Galium aparine; assay: Herbicidal activity, postemergence test; details: post; sprayed onto seedling plants, 800 g of active material per hectare; evaluated 2 weeks after treatment
Description: as §1, §2, §3, §4, §5, §6

[27] = system: Glycine max; assay: Herbicidal activity, postemergence test; details: post; sprayed onto seedling plants, 800 g of active material per hectare; evaluated 2 weeks after treatment
Description: as §1, §2, §3, §4, §5, §6

[28] = system: Abutilon theophrasti; assay: Herbicidal activity, postemergence test; details: post; sprayed onto seedling plants, 800 g of active material per hectare; evaluated 2 weeks after treatment
Description: as §1, §2, §3, §4, §5, §6

[29] = system: Triticum aestivum; assay: Herbicidal activity, postemergence test; details: post; sprayed onto seedling plants, 800 g of active material per hectare; evaluated 2 weeks after treatment
Description: as §1, §2, §3, §4, §5, §6

[30] = system: Ipomoea hederacea; assay: Herbicidal activity, postemergence test; details: post; sprayed onto seedling plants, 800 g of active material per hectare; evaluated 2 weeks after treatment
Description: as §1, §2, §3, §4, §5, §6

[31] = system: Stellaria media; assay: Herbicidal activity, postemergence test; details: post; sprayed onto seedling plants, 800 g of active material per hectare; evaluated 2 weeks after treatment
Description: as §1, §2, §3, §4, §5, §6

[32] = system: Hordeum vulgare; assay: Herbicidal activity, postemergence test; details: post; sprayed onto seedling plants, 800 g of active material per hectare; evaluated 2 weeks after treatment
Description: as §1, §2, §3, §4, §5, §6

[33] = system: Papaver rhoeas; assay: Herbicidal activity, postemergence test; details: post; sprayed onto seedling plants, 800 g of active material per hectare; evaluated 2 weeks after treatment
Description: as §1, §2, §3, §4, §5, §6

[34] = system: Alopecurus myosuroides; assay: Herbicidal activity, postemergence test; details: post; sprayed onto seedling plants, 800 g of active material per hectare; evaluated 2 weeks after treatment
Description: as §1, §2, §3, §4, §5, §6

[35] = system: Lamium purpureum; assay: Herbicidal activity, postemergence test; details: post; sprayed onto seedling plants, 800 g of active material per hectare; evaluated 2 weeks after treatment
Description: as §1, §2, §3, §4, §5, §6

[36] = system: Chenopodium album; assay: Herbicidal activity, postemergence test; details: post; sprayed onto seedling plants, 800 g of active material per hectare; evaluated 2 weeks after treatment
Description: as §1, §2, §3, §4, §5, §6

Row | SMILES | AMBEL control rating (0-9) [1] | MATIN control rating (0-9) [2] | SETVI control rating (0-9) [3] | ZEAMX control rating (0-9) [4] | AMARE control rating (0-9) [5] | VERPE control rating (0-9) [6] | GOSHI control rating (0-9) [7] | GALAP control rating (0-9) [8] | GLXMA control rating (0-9) [9] | ABUTH control rating (0-9) [10] | TRZAW control rating (0-9) [11] | IPOHE control rating (0-9) [12] | STEME control rating (0-9) [13] | HORVW control rating (0-9) [14] | PAPRH control rating (0-9) [15] | ALOMY control rating (0-9) [16] | LAMPU control rating (0-9) [17] | CHEAL control rating (0-9) [18] | AMBEL control rating (0-9) [19] | MATIN control rating (0-9) [20] | other results
1 | C[C@H](NC(=O)c1nnc(C=Cc2ccccc2)o1)c1ccccc1 [Example 17] | 0 (no effect) | 0 (no effect) | 0 (no effect) | 0 (no effect) | 0 (no effect) | 3 (moderate effect) | 9 (complete kill) | 0 (no effect) | 0 (no effect) | 0 (no effect) | 0 (no effect) | 0 (no effect) | 0 (no effect) | 0 (no effect) | 5 (definite injury) | 0 (no effect) | 0 (no effect) | 0 (no effect) | 0 (no effect) | 0 (no effect) | SETVI control rating (0-9) [21]: 0 (no effect); ZEAMX control rating (0-9) [22]: 1 (trace effect); AMARE control rating (0-9) [23]: 4 (injury); VERPE control rating (0-9) [24]: 3 (moderate effect); GOSHI control rating (0-9) [25]: 3 (moderate effect); GALAP control rating (0-9) [26]: 2 (slight effect); GLXMA control rating (0-9) [27]: 0 (no effect); ABUTH control rating (0-9) [28]: 1 (trace effect); TRZAW control rating (0-9) [29]: 0 (no effect); IPOHE control rating (0-9) [30]: 1 (trace effect); STEME control rating (0-9) [31]: 0 (no effect); HORVW control rating (0-9) [32]: 0 (no effect); PAPRH control rating (0-9) [33]: 5 (definite injury); ALOMY control rating (0-9) [34]: 0 (no effect); LAMPU control rating (0-9) [35]: 6 (herbicidal effect); CHEAL control rating (0-9) [36]: 5 (definite injury)
2 | C[C@H](NC(=O)c1nnc(-c2ccc(Cl)cc2)o1)c1ccccc1 [Example 12] | 0 (no effect) | 7 (good herbicidal effect) | 9 (complete kill) | 0 (no effect) | 8 (approaching complete kill) | 9 (complete kill) | 0 (no effect) | 0 (no effect) | 0 (no effect) | 2 (slight effect) | 0 (no effect) | 0 (no effect) | 9 (complete kill) | 0 (no effect) | 9 (complete kill) | 1 (trace effect) | 8 (approaching complete kill) | 8 (approaching complete kill) | 7 (good herbicidal effect) | 5 (definite injury) | SETVI control rating (0-9) [21]: 9 (complete kill); ZEAMX control rating (0-9) [22]: 3 (moderate effect); AMARE control rating (0-9) [23]: 9 (complete kill); VERPE control rating (0-9) [24]: 9 (complete kill); GOSHI control rating (0-9) [25]: 9 (complete kill); GALAP control rating (0-9) [26]: 6 (herbicidal effect); GLXMA control rating (0-9) [27]: 5 (definite injury); ABUTH control rating (0-9) [28]: 9 (complete kill); TRZAW control rating (0-9) [29]: 2 (slight effect); IPOHE control rating (0-9) [30]: 9 (complete kill); STEME control rating (0-9) [31]: 9 (complete kill); HORVW control rating (0-9) [32]: 4 (injury); PAPRH control rating (0-9) [33]: 9 (complete kill); ALOMY control rating (0-9) [34]: 3 (moderate effect); LAMPU control rating (0-9) [35]: 9 (complete kill); CHEAL control rating (0-9) [36]: 9 (complete kill)
